Test results reported in PubChem BioAssay (NCI).
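Protocol summary: plate cells (96-well), add compound at 5 concentrations, incubate 48 h, interpolate endpoints linearly. GI50: concentration for 50% inhibition of growth. The concentration for full growth arrest is given as TGI.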

Experiments:
Experiment in all cases: NCI tumour cell line growth inhibition, 48 h
A549 NSCLC = tested on: A549 NSCLC
CCRF-CEM leukemia = tested on: CCRF-CEM leukemia
HCT-116 colon = tested on: HCT-116 colon
HL-60(TB) leukemia = tested on: HL-60(TB) leukemia
KM12 colon = tested on: KM12 colon
SK-OV-3 ovarian = tested on: SK-OV-3 ovarian
SN12C renal = tested on: SN12C renal
SNB-75 CNS = tested on: SNB-75 CNS
TK-10 renal = tested on: TK-10 renal
U251 CNS = tested on: U251 CNS
UACC-257 melanoma = tested on: UACC-257 melanoma

SMILES	TGI (A549 NSCLC)	TGI (CCRF-CEM leukemia)	TGI (HCT-116 colon)	TGI (HL-60(TB) leukemia)	TGI (KM12 colon)	TGI (SK-OV-3 ovarian)	TGI (SN12C renal)	TGI (SNB-75 CNS)	TGI (TK-10 renal)	TGI (U251 CNS)	TGI (UACC-257 melanoma)	GI50 (CCRF-CEM leukemia)
O=C(Cc1ccccc1)NN1C(=O)C(Cl)C1c1ccc(O)cc1 (centres undefined)	> 100 µM	> 100 µM	> 100 µM	> 100 µM	> 100 µM	> 100 µM	> 100 µM	> 100 µM	> 100 µM	> 100 µM	> 100 µM	
COc1ccc(/C=N/N=C(\N)NO)c(O)c1	> 10 µM	> 10 µM	> 10 µM	> 10 µM	> 10 µM	> 10 µM	> 10 µM	2.42 µM	> 10 µM	> 10 µM	> 10 µM	
O=C1c2ccccc2CCCCCCCCCCC12OCCCO2	91.9 µM	83.3 µM	38.3 µM	40.1 µM	> 100 µM	> 100 µM	> 100 µM	> 100 µM	> 100 µM	> 100 µM	72.7 µM	
O=C1c2ccccc2-c2nc(-c3cccc([N+](=O)[O-])c3)nnc21	98.6 µM	> 100 µM	> 100 µM	16.8 µM	> 100 µM	> 100 µM	45.7 µM	59 µM	39.5 µM	> 100 µM	13.3 µM	
O=C1NC(N/N=C/C(O)C(O)C(O)CO)=N/C1=C\c1ccco1 (centres undefined)	> 100 µM	> 100 µM	> 100 µM	> 100 µM	> 100 µM	> 100 µM	> 100 µM	> 100 µM	> 100 µM	> 100 µM	> 100 µM	
COc1ccc(Nc2nc(NS(=O)(=O)c3cc(C)c(Cl)cc3S)n[nH]2)cc1	> 100 µM	> 100 µM	> 100 µM	> 100 µM	> 100 µM	> 100 µM	> 100 µM	> 100 µM	> 100 µM	> 100 µM	> 100 µM	
Cc1ccc2c(=O)cc(-c3cccs3)[nH]c2n1	> 100 µM	> 87.6 µM	> 100 µM	25.5 µM	> 100 µM	> 100 µM	> 100 µM	63.3 µM	> 100 µM	> 100 µM	> 100 µM	
CC(=O)C1=C(C)NC2C=CC=CN12 (centres undefined)	> 100 µM	> 100 µM	> 100 µM	> 100 µM	> 100 µM	> 100 µM	> 100 µM	> 100 µM	> 100 µM	> 100 µM	> 100 µM	
O=c1oc2ccccc2c(Nc2ccc3c(c2)Oc2ccccc2O3)c1[N+](=O)[O-]	> 100 µM	> 100 µM	> 100 µM	> 100 µM	> 100 µM	40.9 µM	> 100 µM	30.2 µM	40.1 µM	30 µM	91.2 µM	
COC(=O)[C@H](Cc1ccccc1)NC(=O)[C@H](Cc1ccccc1)NC(=O)[C@@H]1CCCN1C(=O)N[C@H]1C2C=CC(C2)C1C(=O)N1CCC[C@H]1C(=O)N[C@@H](C)C(=O)N[C@H](C(=O)OC)C(C)C (some centres undefined)	> 100 µM	56.4 µM	> 100 µM	> 100 µM	> 100 µM	> 100 µM	> 100 µM	> 100 µM	> 100 µM	> 100 µM	> 100 µM	
COC(=O)C1=C2SCc3cccc(c3)CSC3=C(C(=O)OC)SC(=C(S2)S1)S3	> 100 µM	> 100 µM	> 100 µM	80.9 µM	> 100 µM	> 100 µM	> 100 µM	> 100 µM	> 100 µM	> 100 µM	> 100 µM	
CC1=COC(C)(C=C(C#N)C#N)CC1 (centres undefined)	> 100 µM	> 100 µM	> 100 µM	50.1 µM	> 100 µM	> 100 µM	> 100 µM	> 100 µM	> 100 µM	> 100 µM	> 100 µM	
CCC1(C)N=C(c2cnccn2)NN1c1ccc(Cl)cc1 (centres undefined)	> 100 µM	59.9 µM	> 100 µM	> 100 µM	> 100 µM	> 100 µM	72.3 µM	> 100 µM	> 100 µM	> 100 µM	99.3 µM	
N#Cc1nc(-c2cccs2)oc1N	> 100 µM	> 100 µM	> 100 µM	> 100 µM	> 100 µM	> 100 µM	> 100 µM	> 100 µM	> 100 µM	> 100 µM	> 100 µM	
C1CCC2C(C1)CCCC2NC1=NCCO1 (centres undefined)	> 100 µM	> 100 µM	> 100 µM	> 100 µM	> 100 µM	> 100 µM	> 100 µM	> 100 µM	> 100 µM	> 100 µM	> 100 µM	
CCOC(=O)/C1=C(\C)N(c2ccc(C)cc2)C(=O)c2ccccc2C(=O)c2c(OC(C)=O)ccc(OC(C)=O)c21	> 100 µM	26.2 µM	35.9 µM	54.4 µM	40.6 µM	70.9 µM	50.5 µM	> 100 µM	44.4 µM	97.9 µM	80.7 µM	
CCC1(C(=O)OC(C)(C)C)OC12C(C)CCCC2C (centres undefined)	> 100 µM	39.8 µM	> 100 µM	37 µM	> 100 µM	> 100 µM	> 100 µM	97.7 µM	> 100 µM	> 100 µM	> 100 µM	
CCOC(=O)/C=C(\C(=O)OCC)n1cc(C)c(=O)n(Cc2cnnn2CCCCOC(C)=O)c1=O	60.7 µM	4.71 µM	22.7 µM	6.73 µM	34.4 µM	> 92.4 µM	39.3 µM	38.3 µM	13.7 µM	49.2 µM	31.7 µM	1.32 µM
N#Cc1c(-c2ccccc2)nc(-c2ccccc2)sc1=S	> 100 µM	> 100 µM	> 100 µM	> 100 µM	> 100 µM	> 100 µM	> 100 µM	> 100 µM	> 100 µM	> 100 µM	> 100 µM	
O=C1c2ccccc2C(=O)N1Cc1ccccc1-c1c2nc(c(-c3ccccc3CN3C(=O)c4ccccc4C3=O)c3ccc([nH]3)c(-c3ccccc3CN3C(=O)c4ccccc4C3=O)c3nc(c(-c4ccccc4CN4C(=O)c5ccccc5C4=O)c4ccc1[nH]4)C=C3)C=C2	> 100 µM	> 100 µM	> 100 µM	> 100 µM	> 100 µM	> 100 µM	> 100 µM	> 100 µM	> 100 µM	> 100 µM	> 100 µM	
NP(=O)(OCC1=CC(=O)c2ccccc2C1=O)N(CCBr)CCBr (centres undefined)	26.5 µM	> 100 µM	> 45.1 µM	> 100 µM	25 µM	30.9 µM	33.9 µM	> 35.8 µM	33.1 µM	28.7 µM	4.21 µM	
COC(=O)N/N=C(\C)C(CN1CCCCC1)C(C1=C(O)c2ccccc2OC1)c1ccccc1 (centres undefined)	> 100 µM	> 100 µM	> 100 µM	> 100 µM	> 100 µM	> 100 µM	> 100 µM	> 100 µM	> 100 µM	> 100 µM	> 100 µM	
C/C=C/C(O)P1(=O)N(Cc2ccccc2)[C@@H]2CCCC[C@H]2N1Cc1ccccc1 (some centres undefined)	> 25 µM	> 25 µM	> 25 µM	> 25 µM	> 25 µM	> 25 µM	> 25 µM	> 25 µM	> 25 µM	> 25 µM	> 25 µM	
CC(=O)c1ccc2c3c1[C@@H]1O[C@@H]1c1cccc(c1-3)[C@@H]1O[C@H]21	37.4 µM	> 100 µM	13.9 µM	35 µM	21.4 µM	76.1 µM	23.9 µM	34.5 µM	> 77.1 µM	19.3 µM	> 60.2 µM	
Cc1cc(C)[n+](CCOc2ccc(/C(=C(/Cl)c3ccccc3)c3ccccc3)cc2)c(C)c1	17.4 µM	3.28 µM	7.98 µM	3.31 µM	2.01 µM	6.54 µM	6.03 µM	4.3 µM	13.1 µM	4.14 µM	3.28 µM	
Cc1ccc2c(c1)[nH]c1cc(C(F)(F)F)ccc1[p+]2=O (centres undefined)	> 100 µM	50.2 µM	> 100 µM	56.2 µM	> 100 µM	> 100 µM	> 100 µM	55.9 µM	> 100 µM	> 100 µM	66 µM	
O=C(CSc1nnc(Cc2ccccc2)o1)Nc1ccc([N+](=O)[O-])cc1	> 100 µM	> 100 µM	> 100 µM	> 100 µM	> 100 µM	> 100 µM	> 100 µM	> 100 µM	> 100 µM	> 100 µM	> 100 µM	
CCCC(C)NC1=C(NC(C)=O)C(=O)c2ccccc2C1=O (centres undefined)	> 100 µM	> 100 µM	> 100 µM	> 100 µM	> 100 µM	> 100 µM	> 100 µM	> 100 µM	> 100 µM	> 100 µM	> 100 µM	
